In patent US7537906B2, “Apoptosis inducer and method of screening for a substance inhibiting acylated homoserine lactone” (priority 2003, dated 2009):

Columns and labels:
[1] = tested on: CaCo-2 cells; assay: Evaluation of viability by Trypan blue staining; format: cell-based, human; settings: 12 hours of culture
Experimental: 2×10^5 CaCo-2 cells were inoculated in a 3.5 cm dish (NUNC), washed twice with PBS (-), and then cultured in a serum-free DMEM medium containing 1% NEAA for 24 hours. Various agents [N-(3-oxododecanoyl)-L-homoserine lactones with final concentrations between 1 and 100 μM] were added, followed by 12 hours of culture. 0.25% DMSO was used as a control. Subsequently, the supernatant and the cells removed from the dish using trypsin-EDTA (TE) were centrifuged at 800 rpm at room temperature for 5 minutes. The supernatant was removed, and then dilution was carried out with 200 μl of DMEM. 50 μl of the dilution was taken in an Eppen tube, an equivalent volume of Trypan blue stain was added, and then the cell count was measured using a hemacytometer. At this time, the sum of the dead cell count and the viable cell count to be measured was determined to be 200 cells or more.

[2] = tested on: p38; assay: MAP kinase activity by Western blot in CaCo-2 cells: phosphorylated p38; format: cell-based, human
Experimental: A CaCo-2 carcinoma cell line of human colon cancer was purchased from American Type Culture Collection (ATCC), and cultured at 37° C. in the presence of 5% CO2 using a DMEM medium containing 10% FCS, 1% NEAA and 1% P/S (100 units/ml penicillin and 100 μg/ml streptomycin).
6×10^5 CaCo-2 cells were inoculated per dish using 6 cm dishes (NUNC), washed twice with phosphate buffered saline (PBS) (-), and then cultured in a serum-free DMEM medium containing 1% NEAA for 24 hours. Subsequently, at a final concentration of 100 μM, homoserine lactone hydrochloride and N-(3-oxododecanoyl)-L-homoserine lactone were each added, and then each solution was allowed to react for 10 minutes. Furthermore, purified acylated homoserine lactone used herein had been dissolved in DMSO in a concentration 400 times higher than the target final concentration, and then subjected to filter sterilization (φ 0.22 μm). As a control, DMSO with a final concentration of 0.25% was used. In addition, α-tubulin was used as an internal standard.
After reaction, the product was washed twice with cold PBS (-), and then frozen at −80° C. The cells were thawed on ice. 200 μl of a lysis buffer (50 mM HEPES, pH 7.5, 50 mM NaCl, 1 mM EDTA, 1.5 mM MgCl2, 1% Triton X-100, 10% glycerin, 10 mM sodium pyrophosphate, 1 mM Na3VO4, 100 mM NaF, 1 mM PMSF, 10 μg/ml aprotinin and 10 μg/ml leupeptin) was added to the cells, and then the cells were scraped off using a scraper. The cells were allowed to stand on ice for 20 minutes, and then centrifuged at 14000 rpm at 4° C. for 15 minutes, thereby collecting the supernatant. Concentration of the collected protein was measured, and then the protein equivalent to 50 μg was subjected to SDS-PAGE. After electrophoresis, the product was blotted on a PVDF membrane. When phosphorylated ERK, JNK, p38 and Akt were measured, blocking was carried out with 0.1% Tween 20 (TBS-T) containing 5% skim milk/Tris-buffered saline. As primary antibodies, an anti-phospho-p44/42 MAP kinase antibody, an anti-phospho-SAPK/JNK antibody, an anti-phospho-p38 MAP kinase antibody, and an anti-phospho-Akt ([…]) antibody were each used. As a secondary antibody, an HRP-labeled anti-rabbit IgG antibody was used. For the α-tubulin used as an internal standard, blocking was carried out with 5% bovine serum albumin (BSA)/TBS-T, and an anti-α-tubulin (Ab-1) antibody and an HRP-labeled anti-mouse IgG antibody were used as a primary antibody and a secondary antibody, respectively. For band detection, Renaissance™ Western Blot Chemiluminescence […] Reagent Plus (NEN) or Western Blotting Luminol Reagent (SANTA CRUZ BIOTECHNOLOGY) was used.
After cell culture, MAP kinase activity and Akt activity were analyzed by Western blot in a manner similar to that used in (1), except that N-(3-oxododecanoyl)-L-homoserine lactones in final concentrations of 0 μM (0.25% DMSO), 1 μM, 10 μM, 30 μM and 100 μM were each added and each solution was allowed to react for 10 minutes (FIG. 8).
After cell culture, N-(3-oxododecanoyl)-L-homoserine lactone with final concentrations of 30 μM and 100 μM were added. For each case, MAP kinase activity and Akt activity were measured by Western blot in a manner similar to that in (1), except for carrying out stimulation with acylated homoserine lactone in a short time course of 0, 5, 10, 30 and 60 minutes (FIG. 11), and in a long time course of 0, 10 minutes, 60 minutes, 2 hours, 4 hours, 6 hours, 8 hours and 10 hours (FIG. 12). In the case of stimulation at 30 μM, both ERK and p38 activities increased with a peak at 10 minutes. However, while ERK activity returned to the base level within 30 minutes, p38 activity lasted until 4 hours after stimulation. The inhibition of Akt activity in the case of stimulation at 30 μM peaked at 5 minutes and lasted until 60 minutes after stimulation, and returned to the base level within 2 hours. ERK activation took place with two steps in the case of stimulation at 100 μM. […]

CCCCCCCCCC(=O)CC(=O)N[C@H]1CCOC1=O [N-(3-oxododecanoyl)-L-homoserine lactone]
viability ([1]; 1 μM): 94% | viability ([1]; 10 μM): 90% | viability ([1]; 30 μM): 55% | viability ([1]; 100 μM): 51% | concentration at which viability was significantly decreased [1]: ≥ 30 µM | p38 activity increase ([2]; 10 μM, 10 minutes): 3.2 times | p38 activity increase ([2]; 30 μM, 10 minutes): 4.4 times | activation of p38 ([2]; 100 μM, 10 minutes): promoted | p38 activity increase ([2]; 100 μM, 10 minutes): 5.4 times | concentration at which levels of phosphorylated p38 significantly increased ([2]; 10 minutes): ≥ 10 µM | p38 activity lasted until (after stimulation) ([2]; stimulation at 30 μM): 4 h | time of peak p38 activity ([2]; stimulation at 30 μM): 10 min | p38 activity lasted until (after stimulation) ([2]; stimulation at 100 μM): 8 h | time of peak p38 activation ([2]; stimulation at 100 μM): 5 min
